Results published in PubChem BioAssay (NCI).
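Each compound was tested at five concentrations against cells in 96-well plates for 48 hours. TGI is the concentration that stops growth completely.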

Key:
Test in all cases: NCI anticancer screen, dose series, 48 h
SN12C renal = test system: SN12C renal
SK-MEL-2 melanoma = test system: SK-MEL-2 melanoma
SK-MEL-28 melanoma = test system: SK-MEL-28 melanoma
SK-MEL-5 melanoma = test system: SK-MEL-5 melanoma
CAKI-1 renal = test system: CAKI-1 renal
K-562 leukemia = test system: K-562 leukemia
KM12 colon = test system: KM12 colon
MDA-MB-435 = test system: MDA-MB-435
SR leukemia = test system: SR leukemia
NCI/ADR-RES ovarian = test system: NCI/ADR-RES ovarian
OVCAR-8 ovarian = test system: OVCAR-8 ovarian
IGROV1 ovarian = test system: IGROV1 ovarian
DU-145 prostate = test system: DU-145 prostate
NCI-H522 lung = test system: NCI-H522 lung
RXF 393 renal = test system: RXF 393 renal
LOX IMVI melanoma = test system: LOX IMVI melanoma
BT-549 breast = test system: BT-549 breast
MOLT-4 leukemia = test system: MOLT-4 leukemia
HOP-62 NSCLC = test system: HOP-62 NSCLC
HS 578T breast = test system: HS 578T breast
OVCAR-4 ovarian = test system: OVCAR-4 ovarian
MDA-N = test system: MDA-N
SK-OV-3 ovarian = test system: SK-OV-3 ovarian
HCC-2998 colon = test system: HCC-2998 colon
EKVX NSCLC = test system: EKVX NSCLC
TK-10 renal = test system: TK-10 renal
SNB-19 CNS = test system: SNB-19 CNS
HCT-15 colon = test system: HCT-15 colon
CCRF-CEM leukemia = test system: CCRF-CEM leukemia
RPMI-8226 leukemia = test system: RPMI-8226 leukemia
UO-31 renal = test system: UO-31 renal
OVCAR-5 ovarian = test system: OVCAR-5 ovarian
NCI-H460 lung = test system: NCI-H460 lung
HT29 colon = test system: HT29 colon
UACC-62 melanoma = test system: UACC-62 melanoma
MDA-MB-231 breast = test system: MDA-MB-231 breast
HL-60(TB) leukemia = test system: HL-60(TB) leukemia
SNB-75 CNS = test system: SNB-75 CNS
786-0 renal = test system: 786-0 renal
A549 NSCLC = test system: A549 NSCLC
HOP-92 NSCLC = test system: HOP-92 NSCLC
T-47D breast = test system: T-47D breast
OVCAR-3 ovarian = test system: OVCAR-3 ovarian
PC-3 prostate = test system: PC-3 prostate
COLO 205 colon = test system: COLO 205 colon
M14 melanoma = test system: M14 melanoma
SW-620 colon = test system: SW-620 colon
NCI-H23 lung = test system: NCI-H23 lung
MALME-3M melanoma = test system: MALME-3M melanoma
A498 renal = test system: A498 renal
ACHN renal = test system: ACHN renal
HCT-116 colon = test system: HCT-116 colon
UACC-257 melanoma = test system: UACC-257 melanoma
SF-268 CNS = test system: SF-268 CNS
MCF7 breast = test system: MCF7 breast
SF-295 CNS = test system: SF-295 CNS
U251 CNS = test system: U251 CNS
SF-539 CNS = test system: SF-539 CNS
NCI-H226 lung = test system: NCI-H226 lung

Measured: TGI

COc1ccc2c(=O)cc(-c3ccncc3)oc2c1OC
49.8 µM: A498 renal
71.1 µM: CCRF-CEM leukemia
39 µM: M14 melanoma
98.4 µM: BT-549 breast
93.1 µM: SK-MEL-28 melanoma
68.2 µM: SK-MEL-2 melanoma
39.4 µM: SR leukemia
48.4 µM: HCC-2998 colon
67.6 µM: UO-31 renal
69.6 µM: RXF 393 renal
30.8 µM: COLO 205 colon
64.8 µM: OVCAR-3 ovarian
32.3 µM: UACC-62 melanoma
41.7 µM: MOLT-4 leukemia
50.6 µM: HL-60(TB) leukemia
96.2 µM: KM12 colon
78.1 µM: IGROV1 ovarian
41 µM: SNB-75 CNS
72.8 µM: NCI-H460 lung
55.2 µM: HOP-92 NSCLC
98.9 µM: MDA-N
96.9 µM: MALME-3M melanoma
53.7 µM: HS 578T breast
91.7 µM: SF-268 CNS
56.8 µM: SK-MEL-5 melanoma
not listed: SF-539 CNS | NCI-H226 lung
> 100 µM: all other assays above

CCCCCCC(=O)O[C@H]1CC[C@H]2[C@@H]3CCC4C/C(=N/NC(=O)c5cccc6c(=O)c7ccccc7[nH]c56)C=C(C)[C@]4(C)[C@H]3CC[C@]12C (stereo partly specified)
not listed: SK-MEL-28 melanoma | NCI-H522 lung | RXF 393 renal | NCI-H460 lung | A498 renal
> 25 µM: all other assays above
